{
  "source": "BindingDB's records for doi:10.1021/acsmedchemlett.7b00169",
  "about": "(2017)",
  "tested_on": "Enterococcus faecalis",
  "test": "Antimicrobial activity against vancomycin-resistant Enterococcus faecalis NCTC12201 after 8 hrs",
  "data": [
    {"compound": "Nc1c(O)cccc1C(=O)C[C@H](N)C(=O)O", "values": [
      {"measurement": "IC50", "result": 30, "unit": "µM"}
    ]}
  ]
}
